Measured values reported in patent publication US9309254B2, “Pyrimidinyl-diazospiro compounds” (CONVERGENCE PHARMACEUTICALS LIMITED, priority 2012, dated 2016).
Where a name gives a salt, the structure may show the parent alone. Read-outs that look alike come from different tables or passages of the source.

Biological target: T1, hNaV1.7 (Homo sapiens, UniProt Q15858)
T1 construct: expressed in transfected cells; host or cells: HEK293
Experiment: QPatch NaV1.7 assay
Assay type: cell-based
Conditions: HEK293-hNaV1.7 cells, QPatch16x
Protocol: The compounds of the invention were tested in a QPatch NaV1.7 assay.
HEK293-hNaV1.7 cells were grown in DMEM-F12+10% FBS culture media at 37° C. At a confluency of 50-70% cells were dissociated from culture flasks & triturated to ensure unicellular cell suspension; cell density was measured & adjusted to 2-3×10^6 cells/ml. Recordings were obtained using QPatch16x. The external solution was (in mM): NaCl, 128; KCl, 5; MgCl2, 2; CaCl2, 2; Glucose, 30; HEPES, 15; pH 7.3, 305-315 mOsm. Following seal formation and whole-cell access using internal solution (containing in mM: CsF, 135; EGTA/CsOH, 1/5; HEPES 10; NaCl, 10; pH 7.3, 310-320mOsM), voltage pulse protocols were applied. Initially a steady state inactivation voltage protocol was used to determine the half-maximal voltage for steady state inactivation (V1/2 SSI). Two holding voltages were used to determine test drug inhibition: −90 mV, where most of the channels are in a closed state; and V1/2 SSI, where half of the channels are inactivated. Currents were elicited every 10 seconds by stepping to a membrane potential of 0 mV for 20 ms. Four-point cumulative concentration responses were derived by determining the peak current amplitude at each concentration of test drug over 120 second application. Curves were fitted with the Hill equation yielding pIC50 values at −90 mV and V1/2 SSI holding potentials.

[1] = holding voltage V1/2 SSI, where half of the channels are inactivated, read-out: QP Nav1.7 SSI vhalf pIC50 (converted)
[2] = holding voltage −90 mV, where most of the channels are in a closed state, read-out: QP Nav1.7 - 90 mV pIC50 (converted)

T1 sequence (Q15858 whole entry): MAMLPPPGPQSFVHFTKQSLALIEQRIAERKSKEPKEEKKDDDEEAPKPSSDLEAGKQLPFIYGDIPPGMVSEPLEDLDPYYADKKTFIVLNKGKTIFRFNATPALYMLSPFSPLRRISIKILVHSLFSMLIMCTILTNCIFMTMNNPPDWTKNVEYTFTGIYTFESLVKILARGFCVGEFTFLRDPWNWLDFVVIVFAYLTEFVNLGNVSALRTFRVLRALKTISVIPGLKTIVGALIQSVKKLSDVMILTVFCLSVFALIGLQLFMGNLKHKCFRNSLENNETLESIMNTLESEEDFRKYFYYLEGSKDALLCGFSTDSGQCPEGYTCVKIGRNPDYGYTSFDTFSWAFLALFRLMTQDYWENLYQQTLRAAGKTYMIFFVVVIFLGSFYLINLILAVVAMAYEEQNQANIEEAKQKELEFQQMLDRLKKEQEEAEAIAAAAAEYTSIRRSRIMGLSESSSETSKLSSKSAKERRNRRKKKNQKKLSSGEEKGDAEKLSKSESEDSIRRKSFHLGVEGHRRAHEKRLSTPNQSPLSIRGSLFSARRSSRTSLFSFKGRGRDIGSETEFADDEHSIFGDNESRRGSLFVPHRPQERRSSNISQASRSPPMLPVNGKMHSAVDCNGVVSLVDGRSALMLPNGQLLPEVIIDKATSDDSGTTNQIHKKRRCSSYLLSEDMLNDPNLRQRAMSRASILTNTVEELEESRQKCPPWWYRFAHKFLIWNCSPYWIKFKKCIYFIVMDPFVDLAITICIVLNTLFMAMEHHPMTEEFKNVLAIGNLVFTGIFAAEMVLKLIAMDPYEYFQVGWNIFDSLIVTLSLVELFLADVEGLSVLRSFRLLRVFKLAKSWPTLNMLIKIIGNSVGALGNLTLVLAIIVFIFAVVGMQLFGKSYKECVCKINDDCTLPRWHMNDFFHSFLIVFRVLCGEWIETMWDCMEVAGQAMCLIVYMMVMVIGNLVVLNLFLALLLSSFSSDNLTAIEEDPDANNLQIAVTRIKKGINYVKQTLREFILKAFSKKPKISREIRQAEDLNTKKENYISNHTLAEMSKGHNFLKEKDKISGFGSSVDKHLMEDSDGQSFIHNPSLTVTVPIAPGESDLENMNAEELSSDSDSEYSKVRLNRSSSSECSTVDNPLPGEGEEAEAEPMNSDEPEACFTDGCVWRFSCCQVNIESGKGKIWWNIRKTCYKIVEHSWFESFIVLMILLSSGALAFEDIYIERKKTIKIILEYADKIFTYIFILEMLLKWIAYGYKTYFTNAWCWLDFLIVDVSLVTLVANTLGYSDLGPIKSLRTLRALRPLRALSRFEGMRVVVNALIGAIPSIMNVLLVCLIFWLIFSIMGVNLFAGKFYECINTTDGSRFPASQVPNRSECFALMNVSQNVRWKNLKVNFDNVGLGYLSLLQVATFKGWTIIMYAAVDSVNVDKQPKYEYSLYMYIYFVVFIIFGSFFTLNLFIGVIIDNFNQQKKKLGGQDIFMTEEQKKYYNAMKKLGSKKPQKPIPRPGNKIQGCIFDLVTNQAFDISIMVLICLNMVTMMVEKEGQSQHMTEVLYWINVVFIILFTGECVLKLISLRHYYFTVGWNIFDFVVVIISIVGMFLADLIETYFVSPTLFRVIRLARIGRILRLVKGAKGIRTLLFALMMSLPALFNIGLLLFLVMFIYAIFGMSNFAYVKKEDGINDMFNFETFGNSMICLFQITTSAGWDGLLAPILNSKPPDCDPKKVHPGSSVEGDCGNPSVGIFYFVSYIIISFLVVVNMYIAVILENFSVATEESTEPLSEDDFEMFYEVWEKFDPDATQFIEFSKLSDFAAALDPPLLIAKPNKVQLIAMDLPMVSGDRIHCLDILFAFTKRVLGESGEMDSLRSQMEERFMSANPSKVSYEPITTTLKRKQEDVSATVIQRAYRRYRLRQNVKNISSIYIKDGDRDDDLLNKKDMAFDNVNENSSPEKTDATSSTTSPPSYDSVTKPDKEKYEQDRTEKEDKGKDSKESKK

IC50 [1] [µM]	IC50 [2] [µM]	Compound
39.8	158	Cc1cc(-c2ccc(C(F)(F)F)cc2)nc([C@@H]2CC[C@@]3(CC(C)(C)NC3=O)N2)n1 [Example 44, (2S,5S)-8,8-Dimethyl-2-[4-methyl-6-[4-(trifluoromethyl)phenyl]pyrimidin-2-yl]-1,7-diazaspiro[4.4]nonan-6-one hydrochloride]
20	100	Cc1cc(-c2ccc(C(F)(F)F)cc2)nc([C@@H]2CC[C@]3(CC(C)(C)NC3=O)N2)n1 [Example 45, (2S,5R)-8,8-Dimethyl-2-[4-methyl-6-[4-(trifluoromethyl)phenyl]pyrimidin-2-yl]-1,7-diazaspiro[4.4]nonan-6-one hydrochloride]
3.16	25.1	Cc1cc(-c2ccc(C(F)(F)F)cc2)nc([C@H]2CC[C@]3(CC(C)(C)NC3=O)N2)n1 [Example 46, (2R,5R)-8,8-Dimethyl-2-[4-methyl-6-[4-(trifluoromethyl)phenyl]pyrimidin-2-yl]-1,7-diazaspiro[4.4]nonan-6-one hydrochloride]
